Experimental data taken from US20130059896A1, “5-(1H-PYRAZOL-5-YL)THIAZOLE-BASED COMPOUNDS FOR THE TREATMENT OF DISEASES AND DISORDERS OF THE EYE” (priority 2010, published 2013).

System: wild-type C57:129 F2 hybrid mice
Experiment: Dexamethasone-induced ocular hypertension model (IOP by TonoLab tonometer)
Assay type: in vivo, mouse
Procedure: Twenty eight day mouse Alzet mini-osmotic pumps (DURECT Corp., Cupertino, Calif.) were filled with a solution of water soluble dexamethasone (dex) in PBS (Sigma, St. Louis, Mo.) so that they would release roughly 0.1 mg of dex per day. Once the pumps were filled with the dex, the pumps were allowed to equilibrate in PBS at 37° C. for 60 hours. The equilibrated pumps were surgically placed subcutaneously on the backs of wild-type C57:129 F2 hybrid mice weighing between 25 and 35 grams. Surgical incisions were sutured with 5-0 braided silk (ROBOZ, Gaithersburg, Md.) and treated with antibiotic ointment throughout the entire duration of study. Surgical incisions were glued with TissueMend II (Webster Veterinary, Houston, Tex.). Analgesic (buprenorphine) was given through IP injection the day of surgery and 24 hours after surgery. Intraocular pressure (IOP) was measured on these mice using a TonoLab (Colonial Medical Supply Co., Franconia, N.H.) tonometer. Mice were mildly sedated with isoflurane and topically anesthetized with 0.5% proparacaine (Akorn, Buffalo Grove, Ill.) before IOP measurements were taken. Baseline IOP was measured 1 day prior to mini-pump implantation. After mini-pump implantation, IOP measurements were taken 2-3 times per week for 4 weeks. Pharmacology studies with potential ocular hypotensive compounds were performed between 21 and 28 days after implantation.

In the case of `O=C(C[C@@H]1CCCN1)Nc1ncc(-c2cc(C(F)F)nn2-c2c(Cl)cccc2Cl)s1` [Compound 9, (S)—N-(5-(1-(2,6-dichlorophenyl)-3-(difluoromethyl)-1H-pyrazol-5-yl)thiazol-2-yl)-2-(pyrrolidin-2-yl)acetamide], the “Average changes in IOP measured from time of dosing” value (“Average changes in IOP measured” below) (3 μg/eye, 0 hr) is reported as 0.00 (0.0), the “Average changes in IOP measured” value (3 μg/eye, 2 hr) is reported as −4.10 (2.6) and the “Average changes in IOP measured” value (3 μg/eye, 4 hr) is reported as −3.81 (3.8). For the same compound, the “Average changes in IOP measured” value (3 μg/eye, 6 hr) was −3.19 (3.2), the “Average changes in IOP measured” value (15 μg/eye, 0 hr) was 0.00 (0.0) and the “Average changes in IOP measured” value (15 μg/eye, 2 hr) was −4.25 (2.7). The “Average changes in IOP measured” value (15 μg/eye, 4 hr) was −4.88 (5.1), the “Average changes in IOP measured” value (15 μg/eye, 6 hr) was −4.88 (4.2) and the “Average changes in IOP measured” value (30 μg/eye, 0 hr) was 0.00 (0.0). For the same compound, the “Average changes in IOP measured” value (30 μg/eye, 2 hr) was −3.33 (4.2), the “Average changes in IOP measured” value (30 μg/eye, 4 hr) was −2.86 (1.1) and the “Average changes in IOP measured” value (30 μg/eye, 6 hr) was −2.29 (2.2). For the same compound, the “Effect in the ocular hypertension model (FIG. 1)” value (dose response, FIG. 1) was “dose dependent effect”.
